Results on 10 compounds are retold here after article PMC13107341, “Quinoline/thiazole compounds as selective acetylcholinesterase inhibitors: synthesis and biological assessment” (RSC Medicinal Chemistry, 2026).

For one data set, the target named is AChE (Homo sapiens, UniProt P22303). Kind of data set: Anticholinesterase enzyme activity, modified Ellman method (AChE). It counts as biochemical. The protocol:
Anticholinesterase enzyme activity studies were conducted to evaluate the inhibitory potential of the synthesized compounds (Table 2).
(§1) The anticholinesterase enzyme activities of the compounds were investigated using the modified Ellman method. The details of this method have been presented in detail in our previous studies.[25–27]

The target in another data set is BChE (Homo sapiens, UniProt P06276). Kind of data set: Anticholinesterase enzyme activity, modified Ellman method (BChE). It is filed as biochemical. The protocol:
Anticholinesterase enzyme activity studies were conducted to evaluate the inhibitory potential of the synthesized compounds (Table 2). Upon analysis of the results, compounds 3h and 3i stood out due to their notable IC50 values.
as §1

The nature of a further data set: MTT cytotoxicity assay. The following applies: mouse. The protocol: Both the activity of a compound and its lack of cytotoxicity are criteria that determine whether it can be a potential drug candidate. To this end, the cytotoxic potential of the compounds was investigated on healthy fibroblast cells.
To spectroscopically determine the effects of the synthesized compounds on cell viability, MTT analysis was performed. This method is based on the fact that metabolically active living cells reduce the colorless MTT (3-(4,5-dimethylthiazol-2-yl)-2,5-diphenyltetrazolium) salt, converting it into purple formazan crystals. In the analysis, healthy NIH3T3 cell lines were seeded into 96-well plates at a cell density of […] and incubated with the compounds for 24 hours.[28–33]
(Tetrazolium assays rely on reduction of a dye to a coloured formazan, in cell work by metabolically active cells.)

As usually defined, the IC50 is the concentration that inhibits the measured activity by half. A low value points to greater potency in that assay.

AChE, sequence (P22303 32-614): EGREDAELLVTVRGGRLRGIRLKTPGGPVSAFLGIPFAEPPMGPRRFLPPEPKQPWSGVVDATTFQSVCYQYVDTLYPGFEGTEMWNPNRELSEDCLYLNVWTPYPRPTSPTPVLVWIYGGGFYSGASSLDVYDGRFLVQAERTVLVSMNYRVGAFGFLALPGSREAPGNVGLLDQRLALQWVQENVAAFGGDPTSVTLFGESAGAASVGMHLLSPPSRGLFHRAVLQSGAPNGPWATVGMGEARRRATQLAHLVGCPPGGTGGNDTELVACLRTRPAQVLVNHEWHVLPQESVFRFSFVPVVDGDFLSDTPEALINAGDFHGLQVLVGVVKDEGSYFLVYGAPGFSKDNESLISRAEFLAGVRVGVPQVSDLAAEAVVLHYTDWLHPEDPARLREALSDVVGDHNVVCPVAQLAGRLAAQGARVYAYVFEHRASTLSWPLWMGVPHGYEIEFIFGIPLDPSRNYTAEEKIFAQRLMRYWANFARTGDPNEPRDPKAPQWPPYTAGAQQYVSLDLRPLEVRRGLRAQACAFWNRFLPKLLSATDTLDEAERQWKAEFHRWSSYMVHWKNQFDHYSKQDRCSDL
BChE, sequence (P06276 29-602, species assumed): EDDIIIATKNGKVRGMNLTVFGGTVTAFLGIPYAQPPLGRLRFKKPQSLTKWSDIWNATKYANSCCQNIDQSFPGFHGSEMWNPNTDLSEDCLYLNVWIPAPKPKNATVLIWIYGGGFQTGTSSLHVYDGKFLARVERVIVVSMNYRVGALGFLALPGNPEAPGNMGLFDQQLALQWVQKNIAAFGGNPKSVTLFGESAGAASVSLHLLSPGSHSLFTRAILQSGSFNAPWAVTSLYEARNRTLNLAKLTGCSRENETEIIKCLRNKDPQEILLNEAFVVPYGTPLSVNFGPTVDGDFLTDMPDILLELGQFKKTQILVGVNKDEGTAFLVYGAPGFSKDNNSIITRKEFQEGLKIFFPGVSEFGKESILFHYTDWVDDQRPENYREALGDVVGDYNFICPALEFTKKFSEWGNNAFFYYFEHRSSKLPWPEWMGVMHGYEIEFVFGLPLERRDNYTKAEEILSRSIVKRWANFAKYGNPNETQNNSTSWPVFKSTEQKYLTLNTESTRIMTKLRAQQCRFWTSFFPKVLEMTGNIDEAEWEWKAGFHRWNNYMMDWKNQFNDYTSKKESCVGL

`CCn1c(-c2ccccc2)csc1=NN=Cc1ccnc2ccccc12` [3a, 3-Ethyl-4-phenyl-2-((quinolin-4-ylmethylene)hydrazineylidene)-2,3-dihydrothiazole]: the IC50 at AChE and against BChE was above 10 µM in each case.

Turning to `CCn1c(-c2ccc(C)cc2)csc1=NN=Cc1ccnc2ccccc12` [3b, 3-Ethyl-2-((quinolin-4-ylmethylene)hydrazineylidene)-4-(p-tolyl)-2,3-dihydrothiazole], the concentration for half-maximal inhibition (IC50) at AChE and at BChE was above 10 µM throughout.

In the case of `CCn1c(-c2ccc(OC)cc2)csc1=NN=Cc1ccnc2ccccc12` [3c, 3-Ethyl-4-(4-methoxyphenyl)-2-((quinolin-4-ylmethylene)hydrazineylidene)-2,3-dihydrothiazole], the IC50 at AChE was 3.68 ± 0.109 µM; against BChE it was above 10 µM.

In the case of `CCn1c(-c2ccc([N+](=O)[O-])cc2)csc1=NN=Cc1ccnc2ccccc12` [3d, 3-Ethyl-4-(4-nitrophenyl)-2-((quinolin-4-ylmethylene)hydrazineylidene)-2,3-dihydrothiazole], the IC50 on AChE and against BChE was above 10 µM each time.

For `CCn1c(-c2ccc(F)cc2)csc1=NN=Cc1ccnc2ccccc12` [3e, 3-Ethyl-4-(4-fluorophenyl)-2-((quinolin-4-ylmethylene)hydrazineylidene)-2,3-dihydrothiazole], the figures for the IC50 at AChE and on BChE were 1.87 ± 0.678 µM and above 10 µM, respectively.

Consider `CCn1c(-c2ccc(Cl)cc2)csc1=NN=Cc1ccnc2ccccc12` [3f, 4-(4-Chlorophenyl)-3-ethyl-2-((quinolin-4-ylmethylene)hydrazineylidene)-2,3-dihydrothiazole], for which the IC50 at AChE was 4.75 ± 0.098 µM; against BChE, above 10 µM.

As to `CCn1c(-c2ccc(C#N)cc2)csc1=NN=Cc1ccnc2ccccc12` [3g, 4-(3-Ethyl-2-((quinolin-4-ylmethylene)hydrazineylidene)-2,3-dihydrothiazol-4-yl)benzonitrile], the IC50 on AChE is 9.96 ± 0.208 µM; against BChE, above 10 µM.

For `CCn1c(-c2ccc(Cl)c(Cl)c2)csc1=NN=Cc1ccnc2ccccc12` [3h, 4-(3,4-Dichlorophenyl)-3-ethyl-2-((quinolin-4-ylmethylene)hydrazineylidene)-2,3-dihydrothiazole], in the data set “MTT cytotoxicity assay”, the IC50 at 24 h turned out to be 36.1 ± 0.968 µM. The values for the IC50 at AChE and at BChE were 0.107 ± 0.07 µM and above 10 µM, respectively.

Regarding `CCn1c(-c2ccc(O)c(O)c2)csc1=NN=Cc1ccnc2ccccc12` [3i, 4-(3-Ethyl-2-((quinolin-4-ylmethylene)hydrazineylidene)-2,3-dihydrothiazol-4-yl)benzene-1,2-diol], the IC50 at 24 h in the data set “MTT cytotoxicity assay” was found to be 19.8 ± 0.627 µM. The figures for the IC50 against AChE and on BChE were 0.027 ± 0.002 µM and above 10 µM, respectively.

Take `COc1cccc2c1C(=O)c1c(O)c3c(c(O)c1C2=O)C[C@@](O)(C(=O)CO)C[C@@H]3O[C@H]1C[C@H](N)[C@H](O)[C@H](C)O1` [Doxorubicin, reference compound]: in the data set “MTT cytotoxicity assay”, the IC50 at 24 h was above 1000 µM.
